Entries after “also recorded” stand apart in the source; their conditions may differ. Where two headings read alike, the source gives them in different places.
Legend:
[1] = target: recombinant human acetylcholinesterase, rHsAChE (Homo sapiens, UniProt P22303); assay: biochemical
[2] = target: T1, rSmTAChE (Schistosoma mansoni, UniProt A0A3Q0KMM5); assay type: biochemical; settings: for IC50: read-out: IC50 (µM) rSmTAChE;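 for Inhibition (%) (Average): mostly 20 µM final but a few compounds at 5 or 10 µM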;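 for Inhibition (%) Replicate A: mostly 20 µM final but a few compounds at 5 or 10 µM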;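 for Inhibition (%) Replicate B: mostly 20 µM final but a few compounds at 5 or 10 µM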
T1 sequence (A0A3Q0KMM5 27-661 limits assumed): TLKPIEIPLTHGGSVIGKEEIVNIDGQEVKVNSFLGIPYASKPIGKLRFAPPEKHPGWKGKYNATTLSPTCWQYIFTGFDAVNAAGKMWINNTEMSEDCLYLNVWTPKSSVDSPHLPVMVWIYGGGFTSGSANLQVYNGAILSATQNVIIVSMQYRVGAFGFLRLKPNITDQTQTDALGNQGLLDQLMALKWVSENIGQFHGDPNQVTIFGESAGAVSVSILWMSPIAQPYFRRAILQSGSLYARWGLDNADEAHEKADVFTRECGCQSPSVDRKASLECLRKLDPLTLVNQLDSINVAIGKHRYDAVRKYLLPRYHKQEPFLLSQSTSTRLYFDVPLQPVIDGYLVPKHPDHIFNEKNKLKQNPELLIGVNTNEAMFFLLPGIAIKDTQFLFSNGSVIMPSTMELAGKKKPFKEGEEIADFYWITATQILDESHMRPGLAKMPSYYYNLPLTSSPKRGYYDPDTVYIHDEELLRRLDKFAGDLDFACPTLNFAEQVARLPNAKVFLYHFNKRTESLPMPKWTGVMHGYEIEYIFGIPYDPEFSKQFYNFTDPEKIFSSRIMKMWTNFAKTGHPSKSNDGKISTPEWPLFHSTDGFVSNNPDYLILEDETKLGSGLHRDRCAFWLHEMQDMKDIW

[3] = target: T1, rSmTAChE; assay: biochemical
[4] = tested on: human red blood cell AChE; settings: cited from earlier work
[5] = dose response analysis of Drug Repurposing Hub hits against rHsAChE
[6] = read-out: rSmTAChE HTS Inhibition (Ave, %)
[7] = read-out: HTS/rSmTAChE Inhibition (Ave, %)

Chain of recombinant human acetylcholinesterase, rHsAChE (P22303 32-614): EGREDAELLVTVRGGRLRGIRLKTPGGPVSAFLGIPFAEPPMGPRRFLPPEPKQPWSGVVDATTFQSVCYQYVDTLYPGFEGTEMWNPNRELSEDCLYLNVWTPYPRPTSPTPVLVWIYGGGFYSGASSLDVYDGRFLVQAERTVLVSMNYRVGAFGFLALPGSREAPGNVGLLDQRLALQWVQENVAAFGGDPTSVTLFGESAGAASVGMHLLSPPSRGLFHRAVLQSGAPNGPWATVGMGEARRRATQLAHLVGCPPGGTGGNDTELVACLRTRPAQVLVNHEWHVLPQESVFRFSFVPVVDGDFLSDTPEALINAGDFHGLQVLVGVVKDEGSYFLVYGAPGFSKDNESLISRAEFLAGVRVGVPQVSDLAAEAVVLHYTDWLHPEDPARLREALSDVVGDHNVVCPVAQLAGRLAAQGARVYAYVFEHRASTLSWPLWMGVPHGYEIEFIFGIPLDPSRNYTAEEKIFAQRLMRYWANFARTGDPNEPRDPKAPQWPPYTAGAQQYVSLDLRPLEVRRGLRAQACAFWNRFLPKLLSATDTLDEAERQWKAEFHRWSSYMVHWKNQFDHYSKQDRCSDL

Row | Compound | Data Mode (curve class), rHsAChE [1] | SI (Sm/Hs) [1] | Data Mode (curve class), rSmTAChE [2] | Data Mode (curve class), rHsAChE [1, 5] | inhibition at 20 µM [3, 6] | inhibition at 20 µM [3, 7] | SI (Hs/Sm) [2] | also measured
1 | CCCCCCCC/C=C\CCCCCCCC(=O)NCCc1ccc(O)c(O)c1 [OLDA, reference compound] | decreasing (weakly active) | 2.67 | decreasing |  |  |  |  | IC50 ([1]; read-out: IC50 (µM) rHsAChE): > 13.5 µM; IC50 [2]: 36.1 µM; Inhibition (%) Replicate A [3]: 93.41%; Inhibition (%) Replicate B [3]: 95.51%; rSmTAChE HTS Inhibition (Ave, %) ([3]; 20 µM): 94.46%
2 | O=C(Nc1cccc2c(=O)cc(-c3nnn[nH]3)oc12)c1ccc(OCCCCc2ccccc2)cc1 [Pranlukast, reference compound] |  | 2.18 | decreasing | decreasing | 66.3% |  |  | IC50 ([1]; IC50 (µM) rHsAChE): 12.6 µM
3 | Cc1cn2nc([C@@H]3CCCCN3C(=O)c3cc(Cl)ccc3NS(C)(=O)=O)cc2nc1N1CC[C@H](N)C1 [Presatovir, reference compound] |  |  | decreasing | decreasing (weakly active) |  | 66.9% |  | 
4 | COc1cc(NC(C)CCCN)c2ncccc2c1 (stereo not shown) [Primaquine phosphate, reference compound] | decreasing (weakly active) |  | decreasing |  |  | 73.7% | 2.21 | IC33 human red blood cell AChE [4]: 38 µM; IC67 human red blood cell AChE [4]: 247 µM
5 | CC(C)(Sc1cc(C(C)(C)C)c(O)c(C(C)(C)C)c1)Sc1cc(C(C)(C)C)c(O)c(C(C)(C)C)c1 [Probucol, reference compound] |  | 5.36 | decreasing (weakly active) | decreasing | 93.7% |  |  | IC50 ([1]; IC50 (µM) rHsAChE): 7.09 µM
6 | CN(C)C(=O)Oc1ccc[n+](C)c1 [Pyridostigmine bromide, reference compound] | decreasing (super-active) |  | decreasing |  | 92.4% |  |  | 
7 | CCCCC(CC)CCC(CC(C)C)OS(=O)(=O)O (stereo not shown) [Sodium-tetradecyl-sulfate, reference compound] |  | 2.01 | decreasing | decreasing | 74.7% |  |  | IC50 ([1]; Table 3, read-out: IC50 (µM) rHsAChE): 5.66 µM
8 | Cc1cc(OCCCS(C)(=O)=O)cc(C)c1-c1cccc(COc2ccc3c(c2)OC[C@H]3CC(=O)O)c1 [TAK-875, reference compound] |  |  | decreasing | decreasing (weakly active) |  | 65% | 2.25 | 
9 | Cc1cnc(Nc2ccc(N3CCN(C)CC3)cc2)nc1Nc1cccc(S(=O)(=O)NC(C)(C)C)c1 [TG-101209, reference compound] | decreasing |  | decreasing |  |  |  | 2.51 | IC50 ([1]; read-out: IC50 (µM) rHsAChE): 15.4 µM; IC50 ([1]; read-out: qAC50 (IC50), rHsAChE): 15.4 µM; IC50 [2]: 6.13 µM; Inhibition (%) (Average) [3]: 70.99%; Inhibition (%) Replicate A [3]: 68.94%; Inhibition (%) Replicate B [3]: 73.04%; HTS/rSmTAChE Inhibition (Ave, %) ([3]; 20 µM): 71.00%
10 | CCCCCCCCCCCCCCCC[N+](C)(C)CCN(Cc1ccc(OC)cc1)c1ncccn1 [Thonzonium bromide, reference compound] |  | 2.92 | decreasing | decreasing | 67% |  |  | IC50 ([1]; IC50 (µM) rHsAChE): 0.38 µM
11 | Oc1cc(Cl)ccc1Oc1ccc(Cl)cc1Cl [Triclosan, reference compound] | decreasing (weakly active) |  | decreasing |  |  | 68% | 5.78 | 
12 | CCN(c1ccccc1)c1cc(=NC)n(C)c(C)n1 [ZD-7288, 4-ethylphenylamino-1,2-dimethyl-6-methylaminopyrimidinium chloride, reference compound] |  |  | decreasing | decreasing (weakly active) |  |  | 46.87 | IC50 ([1]; Table 1, Inactive = inactive at the maximum tested concentration (40 µM), read-out: IC50 (µM) rHsAChE): > 19.5 µM; IC50 ([1]; read-out: IC50 for rHsAChE): ~20 µM; fold greater potency/selectivity for SmTAChE vs. HsAChE (Selectivity Index) [2]: ~50 fold; inhibition at 10 µM [3, 7]: 75%
13 | SR-33805 [reference compound] |  |  | decreasing |  |  |  |  | IC50 (µM) rHsAChE [1]: Inactive; inhibition of rHsAChE, result in words [1]: no inhibition detected; also recorded: no activity detected; IC50 [2]: 6.82 µM; Inhibition (%) (Average) [3]: 74.26%; Inhibition (%) Replicate A [3]: 73.90%; Inhibition (%) Replicate B [3]: 74.62%; HTS/rSmTAChE Inhibition (Ave, %) ([3]; 5 µM): 74.26%

From PMC12154458, “High-Throughput Screens of Repurposing Hub and DOS Chemical Libraries Reveal Compounds with Novel and Potent Inhibitory Activity Against the Essential Non-Neuronal Acetylcholinesterase of Schistosoma mansoni (SmTAChE)” (International Journal of Molecular Sciences, 2025)
